Reference: publication PMC12005472 (Chemmedchem, 2025)
Where two headings read alike, the source gives them in different places.

Columns and labels:
Asp25 = Asp25 (UniProt position 93, KEALLDTGADD); conditions: cited from earlier work
[1] = test system: HIV-1 protease (HIV-1 PR); set-up: method as in PMID 1883831; conditions: experiment; cited from earlier work
Endothiapepsin (EP) [2] = test system: Endothiapepsin (EP)
Text: The total proton exchange ( ΔnH^+ ) in a binding event can be determined by ITC measurements in different buffers with distinct heats of ionization ( ΔHionization ), according to the Eq. 1: (1) ΔHobserved=ΔHcorrected+ΔnH^+(ΔHionization)
Integrating the raw thermograms yields the experimentally observed enthalpies ( ΔHobserved ), which can be used for a linear regression with the slope corresponding to ΔnH^+ and the y‐axis intercept corresponding to the buffer‐corrected enthalpy of the binding reaction ( ΔHcorrected ).
Figure 3 Left: Calculation of the heat of ionization. The experimentally observed enthalpies ΔHobs are plotted against the heat of ionization ΔHion of the respective buffers (phosphate: 3.60 kJ mol^−1 ADA: 12.23 kJ mol^−1, HEPES: 20.04 kJ mol^−1, TRIS: 47.45 kJ mol^−1).[14] […] Right: Thermodynamic profiles of complex formation in phosphate, ADA, HEPES and TRIS buffers and the buffer‐corrected thermodynamic profile. For the buffer‐corrected profile, the change in Gibbs free energy ΔG is calculated as the average of ΔG observed in the four buffers, ΔH is obtained as described above, and the entropic contribution − TΔS is calculated from the numerical difference between ΔG and ΔH .
Cacodylate was excluded as a buffering agent due to its toxicity. […] 2.5 % (v/v) DMSO corresponds to a molar concentration of 0.35 M.
Each parameter alone can have a clear effect on the thermodynamic properties.[11] We used the MicroCal PEAQ‐ITC Automated ITC with a cell volume of 200 μL; 25 °C is a standard temperature, where most of the experiments are carried out, not only ITC. We followed standard protocols for protein, ligand, and buffer concentrations.[16]
The dialysis was performed in a 600 mL beaker. The membrane of the cassette was soaked in the dialysis buffer for 2 min by holding it (with gloves) in the beaker filled with dialysis buffer at pH 7.0 (TRIS, ADA, HEPES and phosphate, respectively). After pre‐soaking, the cassette was carefully dried with a paper towel to prevent buffer from entering the cassette, but without touching the membranes. 3 mL of at least 4 mg mL^−1 protein solution was added to the cassette using a 200 μL micropipette. When the cassette was closed with the stopper, any remaining air was gently evacuated from the dialysis chamber. The protein was then dialyzed against 500 mL of dialysis buffer for 2 hours at RT with slow stirring. The buffer was then replaced with 500 mL of fresh buffer and stirred again for 2 hours at RT. After another change of buffer, the dialysate was stored in the refrigerator overnight (12–20 hours). The next day, the protein solution was removed using a syringe with a long cannula. The protein was stored on ice before being shock frozen in liquid nitrogen to determine the concentration using NanoDrop™ 2000c (Thermo Scientific, USA).
ITC measurements were performed using the MicroCal PEAQ‐ITC Automated ITC (Malvern Panalytical, Worcestershire, UK). […] For the reference titration, the same titrant was titrated into the buffer solution. The obtained thermogram peaks of all titrations were integrated and fitted with MicroCal PEAQ‐ITC Analysis Software 1.41.

Endothiapepsin (EP) [3] = conditions: ITC; 80 μM EP, 1200 μM pepA, 20 mM buffer (ACES, Cacodylate, HEPES, Phosphate, TRIS), 16 °C, pH 7.0; ref 12 (Gómez and Freire); cited from earlier work
Endothiapepsin (EP) [4] = conditions: in words; ref not given; cited from earlier work

For “HIV-1 protease (Human immunodeficiency virus 1)”, the pKa (Asp25) is listed as 3.1 and the pKa (Asp25; record 2) is listed as 5.2.
In the case of “HIV‐1 PR: HIV-1 protease, an aspartic protease, used to calibrate the Poisson-Boltzmann methodology”, the “pKa of Asp25” value [1] is given as 3.1 and the “pKa of Asp25’” value [1] is given as 5.2.
With Iva‐Val‐Val‐Sta‐Ala‐Sta [pepA] the “proton uptake upon pepA binding to EP, in words” value (Endothiapepsin (EP) [2]) was “uptake of more than one mole of protons”, the “total proton exchange ΔnH^+ (proton uptake per binding reaction)” value (Endothiapepsin (EP) [2]; ITC, slope of ΔHobs vs ΔHionization in phosphate, ADA, HEPES, TRIS, pH 7.0, 25 °C, 50 μM EP, 500 μM pepA, 100 mM buffer, 2.5 % DMSO, 0.1 % Tween20, on average) was 1.67±0.12 protons per binding reaction and the “enthalpic contribution (ΔHobserved) in TRIS” value (Endothiapepsin (EP) [2]; TRIS buffer 100 mM, pH 7.0, 25 °C, 2.5 % DMSO, 0.1 % Tween20) was 7.34 ± 0.693 kcal/mol. For the same substance, the overall proton uptake (Endothiapepsin (EP) [2]; pH 7) was 1.67±0.12 moles of protons, the “total proton exchange ΔnH^+ (proton uptake)” value (Endothiapepsin (EP) [2]; pH 7) was 1.67 ± 0.12 mol and the “buffer-corrected enthalpy of the binding reaction ΔHcorrected” value (Endothiapepsin (EP) [2]; y-axis intercept of ΔHobs vs ΔHion in phosphate, ADA, HEPES, TRIS, pH 7.0, 25 °C) was -12.7 kcal/mol. For the same substance, the “proton exchange ΔnH^+ previously published” value (Endothiapepsin (EP) [3]) was 1.1±0.1 protons and the “pH dependence of affinity” value (Endothiapepsin (EP) [4]) was “becomes higher at more acidic pH”.
